pIC50, pKi: −log10 of the molar value.
Key:
[1] = molecular target: T1, Adrenergic receptor alpha-2 (Rattus norvegicus, UniProt P22086+P19328+P22909); assay: Inhibition of [3H]RX-821002 binding to rat cortex Alpha 2 receptor
T1 sequence (P22086 whole entry): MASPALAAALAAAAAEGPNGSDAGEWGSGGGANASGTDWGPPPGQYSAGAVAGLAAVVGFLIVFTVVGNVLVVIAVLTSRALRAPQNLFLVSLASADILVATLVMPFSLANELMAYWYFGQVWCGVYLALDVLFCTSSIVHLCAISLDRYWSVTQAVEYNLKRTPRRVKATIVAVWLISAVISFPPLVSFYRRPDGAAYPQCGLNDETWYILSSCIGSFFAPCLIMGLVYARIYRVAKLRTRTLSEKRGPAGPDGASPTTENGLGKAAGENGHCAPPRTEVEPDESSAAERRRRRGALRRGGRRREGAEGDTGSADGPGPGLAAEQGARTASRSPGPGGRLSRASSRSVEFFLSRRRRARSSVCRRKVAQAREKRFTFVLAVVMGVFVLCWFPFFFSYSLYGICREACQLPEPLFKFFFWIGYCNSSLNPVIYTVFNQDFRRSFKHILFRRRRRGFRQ
T1 sequence (P19328 whole entry): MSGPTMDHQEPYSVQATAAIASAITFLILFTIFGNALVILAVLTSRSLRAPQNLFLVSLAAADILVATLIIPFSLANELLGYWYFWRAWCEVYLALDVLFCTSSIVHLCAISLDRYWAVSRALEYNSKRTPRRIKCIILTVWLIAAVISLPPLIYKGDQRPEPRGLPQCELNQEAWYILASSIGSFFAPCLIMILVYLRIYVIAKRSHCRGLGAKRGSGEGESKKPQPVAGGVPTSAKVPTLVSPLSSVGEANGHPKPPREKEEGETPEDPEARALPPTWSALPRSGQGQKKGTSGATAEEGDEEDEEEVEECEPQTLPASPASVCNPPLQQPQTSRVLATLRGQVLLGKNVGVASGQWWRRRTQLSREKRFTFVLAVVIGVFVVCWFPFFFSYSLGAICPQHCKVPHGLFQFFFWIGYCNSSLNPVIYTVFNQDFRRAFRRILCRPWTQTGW
T1 sequence (P22909 whole entry): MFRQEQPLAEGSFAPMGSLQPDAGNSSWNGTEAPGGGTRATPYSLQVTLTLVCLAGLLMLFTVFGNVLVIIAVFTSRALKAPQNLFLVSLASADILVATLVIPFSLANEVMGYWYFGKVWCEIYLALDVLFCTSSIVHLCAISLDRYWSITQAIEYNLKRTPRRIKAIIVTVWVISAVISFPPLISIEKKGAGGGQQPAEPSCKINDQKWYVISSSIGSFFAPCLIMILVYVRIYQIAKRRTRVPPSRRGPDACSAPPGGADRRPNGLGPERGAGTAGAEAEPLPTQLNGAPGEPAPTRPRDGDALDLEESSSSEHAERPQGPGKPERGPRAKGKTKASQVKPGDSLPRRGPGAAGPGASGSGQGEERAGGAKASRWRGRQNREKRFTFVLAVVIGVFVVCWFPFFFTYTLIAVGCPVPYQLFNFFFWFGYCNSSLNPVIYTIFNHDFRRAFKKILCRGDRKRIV

[2] = molecular target: Muscarinic acetylcholine receptor; assay: Inhibition of [3H]- QNB binding to rat cortex muscarinic receptor
[3] = Inhibition of [3H]- LSD binding to 5-HT5 receptor expressed in CHO cells; format: cell-based
[4] = molecular target: Serotonin 3 (5-HT3) receptor; assay: Inhibition of [3H]GR-65630 binding to rabbit ileum muscularis 5-HT3 receptor; format: tissue-based, Oryctolagus cuniculus
[5] = molecular target: 5-hydroxytryptamine receptor 4 (Cavia porcellus, UniProt O70528); assay: Inhibition of [3H]- GR-113808 binding to guinea pig striatum 5-HT4 receptor; format: tissue-based
5-hydroxytryptamine receptor 4, sequence (O70528 whole entry): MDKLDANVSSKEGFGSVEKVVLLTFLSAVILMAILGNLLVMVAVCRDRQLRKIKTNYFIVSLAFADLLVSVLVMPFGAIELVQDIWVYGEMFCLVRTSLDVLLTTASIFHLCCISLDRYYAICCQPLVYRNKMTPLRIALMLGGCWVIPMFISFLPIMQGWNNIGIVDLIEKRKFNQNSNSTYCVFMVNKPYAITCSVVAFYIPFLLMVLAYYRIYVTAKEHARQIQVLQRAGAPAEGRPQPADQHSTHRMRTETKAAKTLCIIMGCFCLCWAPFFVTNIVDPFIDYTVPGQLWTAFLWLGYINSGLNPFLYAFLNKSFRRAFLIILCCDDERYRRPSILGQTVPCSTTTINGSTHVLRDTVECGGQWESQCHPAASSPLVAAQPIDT

[6] = molecular target: T2, 5-hydroxytryptamine receptor 6 (Rattus norvegicus, UniProt P31388); assay: Inhibition of [3H]5-HT binding to rat 5-HT6 receptor
T2 sequence (P31388 whole entry): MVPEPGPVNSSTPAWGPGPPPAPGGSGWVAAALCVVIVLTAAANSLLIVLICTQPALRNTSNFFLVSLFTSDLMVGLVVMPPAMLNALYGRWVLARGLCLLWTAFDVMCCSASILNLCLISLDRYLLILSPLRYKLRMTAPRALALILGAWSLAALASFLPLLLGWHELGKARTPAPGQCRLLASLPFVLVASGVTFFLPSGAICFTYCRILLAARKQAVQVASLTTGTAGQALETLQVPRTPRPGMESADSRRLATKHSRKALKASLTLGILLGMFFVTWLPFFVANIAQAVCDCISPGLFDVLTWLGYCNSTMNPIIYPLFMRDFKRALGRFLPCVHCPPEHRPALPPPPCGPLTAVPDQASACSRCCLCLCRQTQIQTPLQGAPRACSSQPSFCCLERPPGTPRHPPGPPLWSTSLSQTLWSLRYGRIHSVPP

[7] = molecular target: T2, 5-hydroxytryptamine receptor 6; assay: Inhibition of [3H]-5-HT binding to rat 5-HT6 receptor

pKi [7]	Structure (SMILES)	Ki [1] [µM]	Ki [2] [µM]	pKi [3]	pIC50 [4]	pIC50 [5]	pIC50 [6]
	COc1cccc(OC)c1-c1cccc2c1CC[C@H](N(C)C)C2	0.188	> 1	7.19	< 6.00	< 6.00	< 6.00
< 6.05	CCCN(CCC)[C@H]1CCc2c(cccc2-c2c(OC)cccc2OC)C1	2.09	> 1				

From ChEMBL document CHEMBL1138658, “Novel 2-aminotetralin and 3-aminochroman derivatives as selective serotonin 5-HT7 receptor agonists and antagonists” (J Med Chem, 2004)
